Measured values: patent US20230357314A1, “METHODS FOR ULTRAFAST FORMATION OF DISULFIDE BONDS IN PEPTIDES AND PROTEINS” (TECHNION RESEARCH & DEVELOPMENT FOUNDATION LIMITED, priority 2020, published 2023)
Values after ≈ are worked out from the molar mass of the structure shown. Where two headings read alike, the source gives them in different places. Positions of bridges follow the written chain, without caps; N, C: chain ends. Residues, ends and D or L forms follow the SMILES beside them.

What was measured:
[1] = tested on: methicillin resistant Staphylococcus aureus (MRSA); experiment: microbe, parasite or virus in culture; conditions: 17 h
[2] = tested on: methicillin resistant Staphylococcus aureus (MRSA); conditions: for MIC: MRSA growth after 17 h at 37° C., LB medium, absorbance at 600 nm, triplicate

Row | SMILES | MIC [1] | MIC [2] | improvement of the antimicrobial activity ([2]; MRSA MIC analysis, worded as 'even in comparison to' trimethoprim (TMP)) | enhanced activity relative to the wild type plectasin ([2]; MRSA MIC, relative to wild type plectasin)
1 | COc1cc(Cc2cnc(N)nc2N)cc(OC)c1OC [TMP, trimethoprim] | 2 µM (≈ 0.581 µg/mL) |  |  | 
2 | CC[C@H](C)[C@@H]1NC(=O)[C@H](CO)NC(=O)[C@H](CCCCN)NC(=O)[C@@H]2CSSC[C@@H](C(=O)N[C@@H](Cc3ccc(O)cc3)C(N)=O)NC(=O)[C@H](CCCCN)NC(=O)[C@@H]3CSSC[C@H](NC(=O)[C@H](CCC(N)=O)NC(=O)[C@H](CCSC)NC(=O)[C@H](CC(=O)O)NC(=O)[C@H](CC(=O)O)NC(=O)[C@H](CCC(=O)O)NC(=O)[C@H](CC(=O)O)NC(=O)[C@H](Cc4c[nH]c5ccccc45)NC(=O)[C@@H]4CCCN4C(=O)CNC(=O)[C@H](CC(N)=O)NC(=O)[C@@H](NC(=O)CNC(=O)[C@H](Cc4ccccc4)NC(=O)CN)CSSC[C@H](NC(=O)[C@H](Cc4ccc(O)cc4)NC(=O)CNC(=O)CNC(=O)[C@H](CCCCN)NC(=O)[C@H](Cc4ccc(O)cc4)NC(=O)CNC(=O)[C@H](CCCCN)NC1=O)C(=O)N[C@@H](C)C(=O)N[C@@H](CCCCN)C(=O)NCC(=O)NCC(=O)N[C@@H](Cc1ccccc1)C(=O)N[C@@H](C(C)C)C(=O)N3)C(=O)N[C@@H](Cc1c[nH]cn1)C(=O)N[C@@H](CC(N)=O)C(=O)N[C@@H](Cc1c[nH]cn1)C(=O)N2 [plectasin WT, plectasin, reference compound] |  | 5 µM (≈ 22 µg/mL) |  | 
3 | CC[C@H](C)[C@@H]1NC(=O)[C@H](CO)NC(=O)[C@H](CCCCN)NC(=O)[C@@H]2CSSC[C@@H](C(=O)N[C@@H](Cc3ccc(O)cc3)C(N)=O)NC(=O)[C@H](CCCCN)NC(=O)[C@@H]3CSSC[C@H](NC(=O)[C@H](CCC(N)=O)NC(=O)[C@H](C)NC(=O)[C@H](CC(=O)O)NC(=O)[C@H](CC(=O)O)NC(=O)[C@H](CCC(=O)O)NC(=O)[C@H](CC(=O)O)NC(=O)[C@H](Cc4c[nH]c5ccccc45)NC(=O)[C@@H]4CCCN4C(=O)CNC(=O)[C@H](CC(N)=O)NC(=O)[C@@H](NC(=O)CNC(=O)[C@H](Cc4ccccc4)NC(=O)CN)CSSC[C@H](NC(=O)[C@H](Cc4ccc(O)cc4)NC(=O)CNC(=O)CNC(=O)[C@H](CCCCN)NC(=O)[C@H](Cc4ccc(O)cc4)NC(=O)CNC(=O)[C@H](CCCCN)NC1=O)C(=O)N[C@@H](C)C(=O)N[C@@H](CCCCN)C(=O)NCC(=O)NCC(=O)N[C@@H](Cc1ccccc1)C(=O)N[C@@H](C(C)C)C(=O)N3)C(=O)N[C@@H](Cc1c[nH]cn1)C(=O)N[C@@H](CC(N)=O)C(=O)N[C@@H](Cc1c[nH]cn1)C(=O)N2 [plectasinMet13Ala] (H-GFGCNGPWDEDDAQCHNHCKSIKGYKGGYCAKGGFVCKCY-NH2; disulfide 4-30, 15-37, 19-39; N-terminus assumed) |  | 1.25 µM (≈ 5.43 µg/mL) | four-fold | four-fold
